Results published in ChEMBL document CHEMBL1144997, “Interaction of cis-(6-benzhydrylpiperidin-3-yl)benzylamine analogues with monoamine transporters: structure-activity relationship study of structurally constrained 3,6-disubstituted piperidine analogues of (2,2-diphenylethyl)-[1-(4-fluorobenzyl)piperidin-4-ylmethyl]amine” (J Med Chem, 2003).

How the values were obtained:
[1] = molecular target: Sodium-dependent dopamine transporter (Rattus norvegicus, UniProt P23977); assay: biochemical; type: tissue-based, Striatum
Sodium-dependent dopamine transporter, sequence (P23977 whole entry): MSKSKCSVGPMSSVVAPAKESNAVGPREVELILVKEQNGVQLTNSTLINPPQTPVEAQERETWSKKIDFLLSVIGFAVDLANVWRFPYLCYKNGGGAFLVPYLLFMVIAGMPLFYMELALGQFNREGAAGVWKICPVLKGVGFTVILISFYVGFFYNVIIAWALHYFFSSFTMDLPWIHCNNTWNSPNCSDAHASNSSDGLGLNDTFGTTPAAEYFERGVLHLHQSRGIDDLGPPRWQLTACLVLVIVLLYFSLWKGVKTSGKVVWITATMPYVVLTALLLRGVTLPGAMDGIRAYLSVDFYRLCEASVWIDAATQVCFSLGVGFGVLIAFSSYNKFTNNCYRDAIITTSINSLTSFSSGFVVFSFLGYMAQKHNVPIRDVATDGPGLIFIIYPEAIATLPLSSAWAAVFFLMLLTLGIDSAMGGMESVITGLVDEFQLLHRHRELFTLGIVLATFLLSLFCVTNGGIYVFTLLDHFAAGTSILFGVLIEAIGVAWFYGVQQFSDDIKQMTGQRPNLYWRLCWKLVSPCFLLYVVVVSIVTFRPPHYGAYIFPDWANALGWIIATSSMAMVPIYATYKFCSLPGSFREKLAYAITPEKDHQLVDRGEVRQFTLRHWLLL
Description: Binding affinity at the dopamine transporter in rast striatum by [3H]WIN-35428 displacement.

[2] = molecular target: Norepinephrine transporter (Rattus norvegicus, UniProt Q9WTR4); assay: Binding affinity at the norepinephrine transporter in rat striatum by [3H]nisoxetine displacement.; type: tissue-based
Norepinephrine transporter, sequence (Q9WTR4 whole entry): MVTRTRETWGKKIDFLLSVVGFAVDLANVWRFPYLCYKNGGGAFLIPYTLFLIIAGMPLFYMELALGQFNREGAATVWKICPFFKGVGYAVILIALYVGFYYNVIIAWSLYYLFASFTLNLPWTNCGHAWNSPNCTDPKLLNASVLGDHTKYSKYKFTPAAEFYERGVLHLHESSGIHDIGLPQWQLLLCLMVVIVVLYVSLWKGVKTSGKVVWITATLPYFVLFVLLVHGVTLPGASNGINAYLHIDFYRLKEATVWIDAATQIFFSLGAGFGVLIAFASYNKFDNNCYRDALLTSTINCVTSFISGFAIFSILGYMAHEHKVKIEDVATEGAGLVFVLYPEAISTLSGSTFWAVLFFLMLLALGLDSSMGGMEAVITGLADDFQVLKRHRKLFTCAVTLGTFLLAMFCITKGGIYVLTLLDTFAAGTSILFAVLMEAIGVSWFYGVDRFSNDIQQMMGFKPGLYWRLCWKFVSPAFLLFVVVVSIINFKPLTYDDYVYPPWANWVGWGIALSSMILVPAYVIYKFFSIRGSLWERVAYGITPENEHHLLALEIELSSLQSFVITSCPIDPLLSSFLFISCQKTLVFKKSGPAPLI

[3] = molecular target: Sodium-dependent serotonin transporter (Rattus norvegicus, UniProt P31652); assay: Binding affinity at serotonin transporter in rat striatum by [3H]citalopram displacement.; type: tissue-based
Sodium-dependent serotonin transporter, sequence (P31652 whole entry): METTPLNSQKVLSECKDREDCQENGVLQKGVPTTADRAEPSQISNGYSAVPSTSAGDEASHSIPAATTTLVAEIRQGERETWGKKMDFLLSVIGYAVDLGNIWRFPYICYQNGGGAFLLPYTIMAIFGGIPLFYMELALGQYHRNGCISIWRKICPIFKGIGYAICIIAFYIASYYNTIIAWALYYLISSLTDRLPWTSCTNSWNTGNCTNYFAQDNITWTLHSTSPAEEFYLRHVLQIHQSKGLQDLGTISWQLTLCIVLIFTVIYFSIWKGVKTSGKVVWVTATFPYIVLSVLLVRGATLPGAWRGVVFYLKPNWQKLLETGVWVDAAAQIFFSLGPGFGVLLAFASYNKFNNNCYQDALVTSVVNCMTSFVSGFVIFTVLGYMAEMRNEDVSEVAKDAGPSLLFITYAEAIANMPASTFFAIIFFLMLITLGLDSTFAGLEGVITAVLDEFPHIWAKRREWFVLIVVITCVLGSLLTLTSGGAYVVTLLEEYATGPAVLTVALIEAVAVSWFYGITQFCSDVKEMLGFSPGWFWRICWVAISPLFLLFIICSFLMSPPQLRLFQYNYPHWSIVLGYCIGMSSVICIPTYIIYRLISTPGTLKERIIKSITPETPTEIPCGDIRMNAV

[4] = Ratio of [3H]- DA uptake to DAT binding was determined; type: functional
Rattus norvegicus = organism: Rattus norvegicus; assay: Inhibition of DAT uptake was determined by measuring the [3H]DA accumulation in rat striatal synaptosomes; type: functional; details: Brain

SMILES | IC50 [1] [µM] | IC50 [2] [µM] | IC50 [3] [µM] | Selectivity ratio [4] | IC50 (Rattus norvegicus) [µM]
c1ccc(C(c2ccccc2)[C@H]2CC[C@@H](NCc3csc4ccccc34)CN2)cc1 | 0.515 | 1.05 | 2.77 |  | 
Fc1ccc(CN2CCC(CNCC(c3ccccc3)c3ccccc3)CC2)cc1 |  |  |  | 2.5 | 
Fc1ccc(CN[C@H]2CC[C@@H](C(c3ccccc3)c3ccccc3)NC2)cc1 | 0.0338 | 1.42 | 1.33 | 1.6 | 0.0538
c1ccc(C(c2ccccc2)[C@H]2CC[C@@H](NCc3cc4ccccc4[nH]3)CN2)cc1 | 0.0954 | 1.01 | 1.8 | 0.53 | 0.051
N#Cc1ccc(CN[C@@H]2CC[C@H](C(c3ccccc3)c3ccccc3)NC2)cc1 | 0.109 | 16.6 | 1.55 | 1.4 | 0.152
Fc1ccc(CCNC2CCC(C(c3ccccc3)c3ccccc3)NC2)cc1 (stereo not given) | 0.173 | 1.74 | 2.19 |  | 
Fc1ccc(CNC2CCC(C(c3ccccc3)c3ccccc3)NC2)cc1 (racemic) |  |  |  | 1.4 | 
c1ccc(C(c2ccccc2)[C@H]2CC[C@@H](NCc3cccs3)CN2)cc1 | 0.267 | 4.73 | 3.65 |  | 
Fc1ccc(CN[C@@H]2CC[C@H](C(c3ccccc3)c3ccccc3)NC2)cc1 | 0.229 | 2.29 | 3.54 | 0.62 | 0.142
COc1ccc(CN[C@@H]2CC[C@H](C(c3ccccc3)c3ccccc3)NC2)cc1 | 0.0475 | 1.11 | 1.04 | 0.85 | 0.0405
N#Cc1ccc(CN[C@H]2CC[C@@H](C(c3ccccc3)c3ccccc3)NC2)cc1 | 0.0113 | 1.67 | 0.434 | 0.8 | 0.0091
c1ccc(CN[C@@H]2CC[C@H](C(c3ccccc3)c3ccccc3)NC2)cc1 | 0.114 | 0.612 | 2.13 |  | 
Fc1ccc(CN[C@@H]2CC[C@H](C(c3ccccc3)c3ccccc3)NC2)cc1F | 0.0635 | 1.59 | 2.25 | 1.2 | 0.077
c1ccc(C(c2ccccc2)[C@H]2CC[C@@H](NCc3c[nH]c4ccccc34)CN2)cc1 | 0.834 | 3.79 | 3.01 |  | 
Oc1ccc(CN[C@@H]2CC[C@H](C(c3ccccc3)c3ccccc3)NC2)cc1 | 0.0659 | 0.201 | 0.862 |  | 
